# Test results: patent US9708314B2, “Heterocyclic amide compound” (NISSAN CHEMICAL INDUSTRIES, LTD., priority 2013, dated 2017)
# Key:
# Assay type in all cases: in vivo
# Details in all cases: application to foliage, 320 g/ha
# Amaranthus retroflexus = test: Test Example 4: herbicidal effect by application to foliage (diluvial soil, plastic box)
# Text: (§1) 5 Herbicidal ratio of 90% or more (almost completely withered) 4 Herbicidal ratio of 70% or more and less than 90% 3 Herbicidal ratio of 40% or more and less than 70% 2 Herbicidal ratio of 20% or more and less than 40% 1 Herbicidal ratio of 5% or more and less than 20% 0 Herbicidal ratio of 5% or less (almost no effect) [Test Example 4] Herbicidal Effect Test by Application to Foliage Sterilized diluvial soil was placed in a plastic box having a length of 21 cm, a width of 13 cm, and a depth of 7 cm. Each of the seeds of Digitaria ciliaris, Setaria viridis, Echinochloa crus-galli var. crus-galli, Avena fatua, Alopecurus myosuroides, Lolium multiflorum Lam., Apera spica-venti., Abutilon theophrasti, Amaranthus retroflexus, Chenopodium album, Stellaria media, Galium spurium, Veronica persica, Zea mays, Glycine max, Oryza sativa, Triticum aestivum, Beta vulgaris ssp. vulgaris, and Brassica campestris L. was sowed in a spot-like manner and was covered with the soil of about 1.5 cm thick. Thereafter, the plants were grown in the greenhouse of 25° C. to 30° C. After the plants were grown for 14 days, the emulsion agent containing the compound of the present invention prepared in accordance with Formulation Example 2 was diluted with water so as to be a predetermined herbicide amount and the diluted compound was uniformly applied to a stem and leaf part with a small-size spray. Three weeks after the herbicide application, effects on each plant were investigated in accordance with the criteria of Test Example 1. A: Echinochloa oryzicola Vasing., B: Scirpus juncoides, C: Monochoria vaginalis, D: Leptochloa chinensis, E: Cyperus difformis, F: Digitaria ciliaris, G: Setaria viridis, H: Echinochloa crus-galli var. crus-galli, I: Avena fatua, J: Alopecurus myosuroides, K: Lolium multiflorum Lam., L: Apera spica-venti., M: Abutilon theophrasti, N: Amaranthus retroflexus, O: Chenopodium album, P: Stellaria media, Q: Galium spurium, R: Veronica persica, a: transplanted Oryza sativa, b: directly sowed Oryza sativa, c: Zea mays, d: Glycine max, e: Triticum aestivum, f: Beta vulgaris ssp. vulgaris, and g: Brassica campestris L. The application herbicide amount (g/ha) means an amount that a concentration is adjusted so that, when an application amount is converted into per hectare (1 ha), the herbicide is applied by the number of grams (g) of the described value.
# Chenopodium album = test: as above
# Text: as §1
# Setaria viridis = test: as above
# Text: as §1
# [1] = system: Echinochloa crus-galli var. crus-galli; test: as above
# Text: as §1
# Veronica persica = test: as above
# Text: as §1
# Avena fatua = test: as above
# Text: as §1
# Alopecurus myosuroides = test: as above
# Text: as §1
# Galium spurium = test: as above
# Text: as §1
# Digitaria ciliaris = test: as above
# Text: as §1
# Apera spica-venti. = test: as above
# Text: as §1
# Stellaria media = test: as above
# Text: as §1
# Lolium multiflorum Lam. = test: as above
# Text: as §1
# Abutilon theophrasti = test: as above
# Text: as §1
# Triticum aestivum = test: Test Example 4: effect on crop by application to foliage (diluvial soil, plastic box)
# Text: as §1
# Zea mays = test: as above
# Text: as §1
# Brassica campestris L. = test: as above
# Text: as §1
# Glycine max = test: as above
# Text: as §1
# [2] = system: directly sowed Oryza sativa; test: as above
# Text: as §1
# [3] = system: Beta vulgaris ssp. vulgaris; test: as above
# Text: as §1
Compound,"herbicidal effect, N (Amaranthus retroflexus) (Amaranthus retroflexus)","herbicidal effect, O (Chenopodium album) (Chenopodium album)","herbicidal effect, G (Setaria viridis) (Setaria viridis)","herbicidal effect, H (Echinochloa crus-galli var. crus-galli) [1]","herbicidal effect, R (Veronica persica) (Veronica persica)","herbicidal effect, I (Avena fatua) (Avena fatua)","herbicidal effect, J (Alopecurus myosuroides) (Alopecurus myosuroides)","herbicidal effect, Q (Galium spurium) (Galium spurium)","herbicidal effect, F (Digitaria ciliaris) (Digitaria ciliaris)","herbicidal effect, L (Apera spica-venti.) (Apera spica-venti.)","herbicidal effect, P (Stellaria media) (Stellaria media)","herbicidal effect, K (Lolium multiflorum Lam.) (Lolium multiflorum Lam.)","herbicidal effect, M (Abutilon theophrasti) (Abutilon theophrasti)","effect on crop, e (Triticum aestivum) (Triticum aestivum)","effect on crop, b (Zea mays) (Zea mays)","effect on crop, g (Brassica campestris L.) (Brassica campestris L.)","effect on crop, c (Glycine max) (Glycine max)","effect on crop, d (directly sowed Oryza sativa) [2]","effect on crop, f (Beta vulgaris ssp. vulgaris) [3]"
CC(C)c1nnc2c(C(=O)Nc3ncnn3C)ccc(C(F)(F)F)n12 [4-001],5 (Herbicidal ratio of 90% or more (almost completely withered)),5 (Herbicidal ratio of 90% or more (almost completely withered)),2 (Herbicidal ratio of 20% or more and less than 40%),3 (Herbicidal ratio of 40% or more and less than 70%),3 (Herbicidal ratio of 40% or more and less than 70%),1 (Herbicidal ratio of 5% or more and less than 20%),0 (Herbicidal ratio of 5% or less (almost no effect)),3 (Herbicidal ratio of 40% or more and less than 70%),1 (Herbicidal ratio of 5% or more and less than 20%),0 (Herbicidal ratio of 5% or less (almost no effect)),3 (Herbicidal ratio of 40% or more and less than 70%),0 (Herbicidal ratio of 5% or less (almost no effect)),5 (Herbicidal ratio of 90% or more (almost completely withered)),0 (Herbicidal ratio of 5% or less (almost no effect)),0 (Herbicidal ratio of 5% or less (almost no effect)),0 (Herbicidal ratio of 5% or less (almost no effect)),0 (Herbicidal ratio of 5% or less (almost no effect)),2 (Herbicidal ratio of 20% or more and less than 40%),2 (Herbicidal ratio of 20% or more and less than 40%)
CC(C)c1nnc2c(C(=O)Nc3ncn[nH]3)ccc(C(F)(F)F)n12 [4-004],0 (Herbicidal ratio of 5% or less (almost no effect)),4 (Herbicidal ratio of 70% or more and less than 90%),0 (Herbicidal ratio of 5% or less (almost no effect)),0 (Herbicidal ratio of 5% or less (almost no effect)),0 (Herbicidal ratio of 5% or less (almost no effect)),0 (Herbicidal ratio of 5% or less (almost no effect)),0 (Herbicidal ratio of 5% or less (almost no effect)),0 (Herbicidal ratio of 5% or less (almost no effect)),0 (Herbicidal ratio of 5% or less (almost no effect)),0 (Herbicidal ratio of 5% or less (almost no effect)),0 (Herbicidal ratio of 5% or less (almost no effect)),0 (Herbicidal ratio of 5% or less (almost no effect)),0 (Herbicidal ratio of 5% or less (almost no effect)),0 (Herbicidal ratio of 5% or less (almost no effect)),0 (Herbicidal ratio of 5% or less (almost no effect)),0 (Herbicidal ratio of 5% or less (almost no effect)),0 (Herbicidal ratio of 5% or less (almost no effect)),0 (Herbicidal ratio of 5% or less (almost no effect)),0 (Herbicidal ratio of 5% or less (almost no effect))
Cc1nnc(NC(=O)c2ccc(C(F)(F)F)n3c(=O)n(C)nc23)o1 [6-001],3 (Herbicidal ratio of 40% or more and less than 70%),4 (Herbicidal ratio of 70% or more and less than 90%),2 (Herbicidal ratio of 20% or more and less than 40%),1 (Herbicidal ratio of 5% or more and less than 20%),2 (Herbicidal ratio of 20% or more and less than 40%),0 (Herbicidal ratio of 5% or less (almost no effect)),0 (Herbicidal ratio of 5% or less (almost no effect)),2 (Herbicidal ratio of 20% or more and less than 40%),1 (Herbicidal ratio of 5% or more and less than 20%),0 (Herbicidal ratio of 5% or less (almost no effect)),4 (Herbicidal ratio of 70% or more and less than 90%),0 (Herbicidal ratio of 5% or less (almost no effect)),3 (Herbicidal ratio of 40% or more and less than 70%),0 (Herbicidal ratio of 5% or less (almost no effect)),0 (Herbicidal ratio of 5% or less (almost no effect)),0 (Herbicidal ratio of 5% or less (almost no effect)),0 (Herbicidal ratio of 5% or less (almost no effect)),0 (Herbicidal ratio of 5% or less (almost no effect)),3 (Herbicidal ratio of 40% or more and less than 70%)
Cc1nnc(NC(=O)c2ccc(C(F)(F)F)n3c(=O)n(C(C)C)nc23)o1 [6-005],3 (Herbicidal ratio of 40% or more and less than 70%),3 (Herbicidal ratio of 40% or more and less than 70%),1 (Herbicidal ratio of 5% or more and less than 20%),3 (Herbicidal ratio of 40% or more and less than 70%),1 (Herbicidal ratio of 5% or more and less than 20%),0 (Herbicidal ratio of 5% or less (almost no effect)),1 (Herbicidal ratio of 5% or more and less than 20%),1 (Herbicidal ratio of 5% or more and less than 20%),3 (Herbicidal ratio of 40% or more and less than 70%),1 (Herbicidal ratio of 5% or more and less than 20%),1 (Herbicidal ratio of 5% or more and less than 20%),1 (Herbicidal ratio of 5% or more and less than 20%),4 (Herbicidal ratio of 70% or more and less than 90%),0 (Herbicidal ratio of 5% or less (almost no effect)),0 (Herbicidal ratio of 5% or less (almost no effect)),0 (Herbicidal ratio of 5% or less (almost no effect)),0 (Herbicidal ratio of 5% or less (almost no effect)),0 (Herbicidal ratio of 5% or less (almost no effect)),1 (Herbicidal ratio of 5% or more and less than 20%)
